Reference: patent US10016383B2, “Inhibitors of metallo-β-lactamase-enzymes” (McMaster University, priority 2013, dated 2018)
Entries after “also recorded” stand apart in the source; their conditions may differ.

Key:
K. pneumoniae N11-2218 = test: Mouse lethal systemic infection, survival; type: in vivo, CD1 mice
Source text: All animals were housed in specific pathogen-free units in the Central Animal Facility at McMaster University. All experimental protocols were approved by, and performed in accordance with the McMaster Animal Research Ethics Board. Female CD1 mice were purchased from Charles River.
Mice were infected intraperitoneally (ip) with a dose of 2×10^6 colony forming units (cfu) of Klebsiella pneumoniae N11-2218 for all organ bacterial load experiments, or with a dose of 5×10^7cfu for all survival experiments. For all organ bacterial load experiments, mice were euthanized 48 hours post infection, and spleen and liver were harvested. Organs were placed into 1 mL sterile PBS on ice, and then homogenized (Mixer Mill 400; Retsch). Organ homogenates were then serially diluted in PBS, and plated on Brilliant Green agar (Oxoid) for cfu enumeration. For survival curves, mice were monitored for endpoint. For all experiments, mice were treated 30 minutes post infection with a specified subcutaneous dose of either PBS, meropenem, AM-A inhibitor, or a combination of both antibiotic and inhibitor.

NDM-1 = NDM-1 (Klebsiella pneumoniae, UniProt C7C422); test: Zn2+ restoration assay; type: biochemical; design: All β-lactamase overexpression constructs were generated without the leader peptide in a pET-28b plasmid containing a N-terminal His Tag; His tag (N, cleaved yes); SUMO (implied by the use of SUMO protease) (N, cleaved yes); made in house; host or cells: E. coli BL21(DE3); conditions: post-inactivation by AM-A
Sequence of NDM-1 (C7C422 29-270 limits assumed): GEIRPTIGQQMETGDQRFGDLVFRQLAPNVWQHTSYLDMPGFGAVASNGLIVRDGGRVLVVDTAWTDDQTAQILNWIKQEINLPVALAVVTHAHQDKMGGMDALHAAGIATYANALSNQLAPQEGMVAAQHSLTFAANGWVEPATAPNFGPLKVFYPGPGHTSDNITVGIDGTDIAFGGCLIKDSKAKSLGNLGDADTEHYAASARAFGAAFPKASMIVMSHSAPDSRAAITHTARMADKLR
Description: NDM-1 (5 nM) supplemented with […] ZnSO4 was incubated with 20 μM AM-A for 15 minutes at 30° C. Nitrocefin (30 μM) and ZnSO4 from 500 nM-40 μM were added to a final volume of 100 μL and absorbance at 490 nm was monitored using a Spectramax reader (Molecular Devices) for 30 minutes at 30° C. Percent residual activity was calculated from no AM-A control. Slightly negative percent residual activity was reported as 0.

SMILES: N[C@H](CN[C@H](CN[C@@H](CC(=O)O)C(=O)O)C(=O)O)C(=O)O [AM-A, aspergillomarasmine A]
- prevention of lethal infection (K. pneumoniae N11-2218; monotherapy (alone)): unable to prevent lethal infection
- survival (K. pneumoniae N11-2218; single dose of combination meropenem 10 mg/kg + AM-A 30 mg/kg, 5 days following infection): > 95%
- NDM-1 activity after addition of excess ZnSO4 (NDM-1): enzymatic activity could be restored; also recorded: restores activity
